Measured values: JP2019059697A, “置換された多環性ピリダジン誘導体およびそのプロドラッグ” (priority 2017, dated 2019)

System: influenza virus [インフルエンザウイルス]
Test: microbe, parasite or virus in culture
Assay type: cell-based
Details: unidentified influenza virus, 72 h, read-out: 50% influenza-infected cell death inhibition concentration (EC50)

Row | Compound | EC50 [nM]
1 | O=C1c2c(O)c(=O)cnn2N(C2c3ccccc3SCc3c2ccc(F)c3F)C2COCCN12 (single isomer, unassigned) [化合物I−1] | 18.2
2 | CCN1CN(C2c3ccccc3CCc3ccccc32)n2ncc(=O)c(O)c2C1=O [化合物I−2] | 207
